One assay relates to HK301. Description: GI50 assay (Cell Titer Glo proliferation, 3 days). The conditions noted are these: Homo sapiens, 72 h; HK301, 3 days; read-out: HK301 GI50. The format is cell-based, human. A general note: ATP-based viability assays read luminescence as a measure of living cells.
In the next assay the test system is GBM39. Description: GI50 assay (Cell Titer Glo proliferation, 3 days). The format is cell-based, human. The conditions noted are these: Homo sapiens, 72 h; GBM39, 3 days.

In the case of `COC(=O)[C@@H](Cc1ccc(Nc2ncnc3cc4c(cc23)OCCO4)cc1)NC(=O)OC(C)(C)C` [JGK014], the GI50 in the assay with HK301 amounted to 11.8 µM; with GBM39, 27.9 µM.
With `COC(=O)[C@H](Cc1ccc(Nc2ncnc3cc4c(cc23)OCCO4)cc1)NC(=O)OC(C)(C)C` [JGK015], the values for the GI50 with HK301 and with GBM39 were 2.15 µM and 11.5 µM, respectively.
The like results for `COC(=O)[C@@H](N)Cc1ccc(Nc2ncnc3cc4c(cc23)OCCO4)cc1` [JGK016] were, in that order, 4.05 µM and 61.6 µM.
The like results for `FC(F)(F)c1c(Cl)cccc1Nc1ncnc2cc3c(cc12)OCCO3` [JGK017] were, in that order, 64.2 µM and 97.6 µM.
As to `COc1cc2ncnc(Nc3cccc(Cl)c3F)c2cc1OC(C)=O` [JGK018], the GI50 in the assay with HK301 is 1.07 µM; in the assay on GBM39, 4.54 µM.
For `COC(=O)[C@H](Cc1ccc(Nc2ncnc3cc(O)c(O)cc23)cc1)NC(=O)OC(C)(C)C` [JGK020], the GI50 in the assay on HK301 came out at 29.2 µM; with GBM39, 36.2 µM.
For the compound `N[C@H](Cc1ccc(Nc2ncnc3cc4c(cc23)OCCO4)cc1)C(=O)O` [JGK021], the GI50 turned out to be 481 µM in the assay on HK301 and 556 µM in the assay on GBM39.
As to `Oc1cc2ncnc(Nc3cccc(Cl)c3F)c2cc1O` [JGK022], the figures for the GI50 in the assay on HK301 and with GBM39 were 31.1 µM and 150 µM, respectively.
The like results for `N[C@@H](Cc1ccc(Nc2ncnc3cc4c(cc23)OCCO4)cc1)C(=O)O` [JGK023] were, in that order, 86.2 µM and 96.3 µM.
In the case of `COC(=O)[C@H](Cc1ccc(NC(=O)COc2cc3c(Nc4cccc(Cl)c4F)ncnc3cc2OC)cc1)NC(=O)OC(C)(C)C` [JGK024], the GI50 came to 156 µM in the assay with HK301 and 125 µM in the assay with GBM39.
The corresponding values for `Fc1ccc(Nc2ncnc3cc4c(cc23)OCCO4)c(F)c1` [JGK025] are 10.7 µM and 27.7 µM.
With `Fc1ccc(F)c(Nc2ncnc3cc4c(cc23)OCCO4)c1` [JGK026], the GI50 in the assay on HK301 came to 6.12 µM; with GBM39 it was 16.5 µM.
The like results for `Fc1cccc(F)c1Nc1ncnc2cc3c(cc12)OCCO3` [JGK027] were, in that order, 5.81 µM and 11.8 µM.
Regarding `Fc1cc(F)c(Nc2ncnc3cc4c(cc23)OCCO4)c(F)c1` [JGK029], the GI50 in the assay with HK301 worked out at 24.4 µM; with GBM39, 34 µM.
The corresponding values for `Fc1c(F)c(F)c(Nc2ncnc3cc4c(cc23)OCCO4)c(F)c1F` [JGK030] are 559 µM and 961 µM.
The like results for `Fc1ccccc1Nc1ncnc2cc3c(cc12)OCCO3` [JGK035, N-(2-Fluorophenyl)-7,8-dihydro[1,4]dioxino[2,3-g]quinazolin-4-amine] were, in that order, 4.04 µM and 10.7 µM.
The like results for `[2H]C1([2H])Oc2cc3ncnc(Nc4cccc(Cl)c4F)c3cc2OC1([2H])[2H]` [JGK036, N-(3-Chloro-2-fluorophenyl)(7,7,8,8-^2H4)-7,8-dihydro[1,4]dioxino[2,3-g]quinazolin-4-amine] were, in that order, 1.05 µM and 4.51 µM.
For `Fc1c(Nc2ncnc3cc4c(cc23)OCCO4)cccc1C(F)(F)F` [JGK039, N-[2-Fluoro-3-(trifluoromethyl)phenyl]-7,8-dihydro[1,4]dioxino[2,3-g]quinazolin-4-amine], the GI50 with HK301 came to 3.61 µM; in the assay with GBM39, 7.82 µM.
In the case of `Fc1c(Cl)cccc1Nc1ncnc2cc3c(cc12)OCCCO3` [JGK040, N-(3-Chloro-2-fluorophenyl)-8,9-dihydro-7H-[1,4]dioxepino[2,3-g]quinazolin-4-amine], the GI50 in the assay with HK301 was 1.72 µM; in the assay on GBM39, 7.12 µM.
The like results for `Fc1c(Cl)cccc1Nc1ncnc2cc3c(cc12)OCO3` [JGK041, N-(3-Chloro-2-fluorophenyl)-2H-[1,3]dioxolo[4,5-g]quinazolin-8-amine] were, in that order, 1.66 µM and 6.04 µM.
The corresponding values for `CC(=O)OCN(c1cccc(Cl)c1F)c1ncnc2cc3c(cc12)OCCO3` [JGK043, [(3-Chloro-2-fluorophenyl)(7,8-dihydro[1,4]dioxino[2,3-g]quinazolin-4-yl)amino]methyl acetate] are 0.745 µM and 1.78 µM.
`N#Cc1cccc(Nc2ncnc3cc4c(cc23)OCCO4)c1F` [JGK044, 3-[(7,8-Dihydro[1,4]dioxino[2,3-g]quinazolin-4-yl)amino]-2-fluorobenzonitrile]: the values for the GI50 in the assay on HK301 and in the assay with GBM39 were 4.52 µM and 5.63 µM, respectively.
On to `N#Cc1cccc(Nc2ncnc3cc4c(cc23)OCCO4)c1` [JGK045, 3-[(7,8-Dihydro[1,4]dioxino[2,3-g]quinazolin-4-yl)amino]benzonitrile], for which the GI50 in the assay with HK301 stood at 3.94 µM; in the assay on GBM39 it was 10.9 µM.
On to `Fc1c(Nc2ncnc3cc4c(cc23)OCCO4)ccc(Cl)c1Br` [JGK053, N-(3-Bromo-4-chloro-2-fluorophenyl)-7,8-dihydro[1,4]dioxino[2,3-g]quinazolin-4-amine], for which the GI50 in the assay on HK301 was 2.78 µM; in the assay on GBM39 it was 5.28 µM.
The corresponding values for `Fc1c(Nc2ncnc3cc4c(cc23)OCCO4)ccc(Br)c1Br` [JGK054, N-(3,4-Dibromo-2-fluorophenyl)-7,8-dihydro[1,4]dioxino[2,3-g]quinazolin-4-amine] are 5.72 µM and 7.7 µM.
Turning to `Fc1ccc(Br)cc1Nc1ncnc2cc3c(cc12)OCCO3` [JGK055, N-(5-Bromo-2-fluorophenyl)-7,8-dihydro[1,4]dioxino[2,3-g]quinazolin-4-amine], the GI50 in the assay with HK301 was 0.29 µM; in the assay on GBM39 it was 0.966 µM.
The corresponding values for `Fc1ccc(Br)c(F)c1Nc1ncnc2cc3c(cc12)OCCO3` [JGK056, N-(3-Bromo-2,6-difluorophenyl)-7,8-dihydro[1,4]dioxino[2,3-g]quinazolin-4-amine] are 0.419 µM and 1.36 µM.
For the compound `Fc1ccc(Nc2ncnc3cc4c(cc23)OCCO4)c(F)c1Br` [JGK057, N-(3-Bromo-2,4-difluorophenyl)-7,8-dihydro[1,4]dioxino[2,3-g]quinazolin-4-amine], the GI50 worked out at 1.38 µM with HK301 and 9.36 µM in the assay on GBM39.
Consider `Fc1c(Br)cc(Cl)cc1Nc1ncnc2cc3c(cc12)OCCO3` [JGK058, N-(3-Bromo-5-chloro-2-fluorophenyl)-7,8-dihydro[1,4]dioxino[2,3-g]quinazolin-4-amine], for which the GI50 was determined as 1.85 µM in the assay with HK301 and 13 µM in the assay with GBM39.
For the compound `Fc1c(Nc2ncnc3cc4c(cc23)OCCO4)ccc(Cl)c1Cl` [JGK060, N-(3,4-Dichloro-2-fluorophenyl)-7,8-dihydro[1,4]dioxino[2,3-g]quinazolin-4-amine], the GI50 with HK301 came to 2.95 µM; with GBM39, 3.5 µM.
With `Fc1cc(Br)c(F)c(Nc2ncnc3cc4c(cc23)OCCO4)c1` [JGK061, N-(3-Bromo-2,5-difluorophenyl)-7,8-dihydro[1,4]dioxino[2,3-g]quinazolin-4-amine], the figures for the GI50 in the assay with HK301 and with GBM39 were 1.13 µM and 1.73 µM, respectively.
The corresponding values for `CN(C)C[C@H]1COc2cc3ncnc(Nc4cccc(Br)c4F)c3cc2O1` [JGK066S] are 0.301 µM and 2.63 µM.
The corresponding values for `Fc1c(Br)cccc1Nc1ncnc2c(F)c3c(cc12)OCCO3` [JGK071, N-(3-Bromo-2-fluorophenyl)-10-fluoro-7,8-dihydro[1,4]dioxino[2,3-g]quinazolin-4-amine] are 5.75 µM and 10.3 µM.

By GI50 is commonly meant the concentration that inhibits growth by half.

These data come from patent US11377451B2, “Compositions and methods for treating cancer” (The Regents of the University of California, priority 2019, dated 2022).
